Key:
[1] = test system: Mycobacterium tuberculosis; assay: Antimycobacterial activity of compound against Mycobacterium tuberculosis H37Rv at 6.25 ug/mL; format: functional
[2] = test system: Mycobacterium tuberculosis; assay: Antimycobacterial activity of compound against Mycobacterium tuberculosis H37Rv at 1.56 ug/mL; format: functional
[3] = test system: Mycobacterium tuberculosis; assay: Antimycobacterial activity of compound against Mycobacterium tuberculosis H37Rv at 5 ug/mL; format: functional
[4] = test system: Mycobacterium tuberculosis; assay: Antimycobacterial activity of compound against Mycobacterium tuberculosis H37Rv at 8 ug/mL; format: functional
[5] = test system: Mycobacterium tuberculosis; assay: Antimycobacterial activity of compound against Mycobacterium tuberculosis H37Rv at 2 ug/mL; format: functional
[6] = test system: Mycobacterium tuberculosis; assay: Antimycobacterial activity of compound against Mycobacterium tuberculosis H37Rv at 1.88 ug/mL; format: functional
[7] = test system: Mycobacterium tuberculosis; assay: Antimycobacterial activity of compound against Mycobacterium tuberculosis H37Rv at 2.50 ug/mL
[8] = test system: Mycobacterium tuberculosis; assay: Antimycobacterial activity of compound against Mycobacterium tuberculosis H37Rv at 0.05 ug/mL; format: functional
[9] = test system: Mycobacterium tuberculosis; assay: Antimycobacterial activity of compound against Mycobacterium tuberculosis H37Rv at 0.125 ug/mL; format: functional

| Compound | inhibition at 6.25 µg/mL [1] | other results |
| --- | --- | --- |
| CC(=O)Nc1ccc(NC(=O)N/N=C/c2ccccc2[N+](=O)[O-])cc1 | 90% |  |
| Cc1c(Cl)cccc1NC(=O)N/N=C/c1ccccc1O | 0% |  |
| CC(=O)Nc1ccc(NC(=O)N/N=C/c2ccc([N+](=O)[O-])cc2)cc1 | 95% |  |
| Cc1c(Cl)cccc1NC(=O)N/N=C/c1ccccc1[N+](=O)[O-] | 10% |  |
| CC(=O)Nc1ccc(NC(=O)N/N=C/c2ccccc2O)cc1 | 5% |  |
| CC(=O)Nc1ccc(NC(=O)N/N=C/c2ccc(N(C)C)cc2)cc1 | 2% |  |
| Cc1c(Cl)cccc1NC(=O)N/N=C/c1ccc(N(C)C)cc1 | 0% |  |
| Cc1c(Cl)cccc1NC(=O)N/N=C/c1cccc([N+](=O)[O-])c1 | 58% |  |
| CC(=O)Nc1ccc(NC(=O)N/N=C/c2cccc([N+](=O)[O-])c2)cc1 |  | inhibition at 1.56 µg/mL [2]: 100% |
| Cc1c(Cl)cccc1NC(=O)N/N=C/c1ccc([N+](=O)[O-])cc1 | 24% |  |
| NC[C@H]1O[C@H](O[C@H]2[C@H](O)[C@@H](O[C@H]3O[C@H](CO)[C@@H](O)[C@H](N)C3O)[C@H](N)C[C@@H]2N)[C@H](O)[C@@H](O)[C@@H]1O (single isomer, unassigned) [KANAMYCIN] |  | inhibition at 5 µg/mL [3]: 90% |
| Nc1ccc(C(=O)O)c(O)c1 [AMINOSALICYLIC ACID] |  | inhibition at 8 µg/mL [4]: 92% |
| O=C(O)c1cn(C2CC2)c2cc(N3CCNCC3)c(F)cc2c1=O [CIPROFLOXACIN] |  | inhibition at 2 µg/mL [5]: 95% |
| CC[C@@H](CO)NCCN[C@@H](CC)CO [ETHAMBUTOL] |  | inhibition at 1.88 µg/mL [6]: 90% |
| CCc1cc(C(N)=S)ccn1 [ETHIONAMIDE] |  | inhibition at 2.5 µg/mL [7]: 90% |
| NNC(=O)c1ccncc1 [ISONIAZID] |  | inhibition at 0.05 µg/mL [8]: 95% |
| CO[C@H]1/C=C/O[C@@]2(C)Oc3c(C)c(O)c4c(O)c(c(/C=N/N5CCN(C)CC5)c(O)c4c3C2=O)NC(=O)/C(C)=C\C=C\[C@H](C)[C@H](O)[C@@H](C)[C@@H](O)[C@@H](C)[C@H](OC(C)=O)[C@@H]1C [RIFAMPIN] |  | inhibition at 0.125 µg/mL [9]: 95% |

Source: ChEMBL document CHEMBL1137114, “Antituberculous activity of some aryl semicarbazone derivatives” (2004)
